{"source": "paper PMC8419995", "about": "“In vitro and in vivo efficacy of thiacloprid against Echinococcus multilocularis” (Parasites & Vectors, 2021)", "key": {"[1]": {"tested_on": "IL-2, IL-4, IL-10 and IgE", "assay": "ELISA of cytokines and IgE in infected mice", "type": "in vivo", "settings": "infected BALB/c mice, 6 weeks oral treatment", "experimental": "(§1) In vitro-grown metacestode vesicles were pressed through a 500 µm mesh and washed three times with sterile PBS. The parasite tissue was then taken up in an equal volume of sterile PBS. Each mouse was intraperitoneally injected with 200 μl suspension. Seven mice were injected with 200 μl PBS as the control group. Twenty-eight infected mice were randomly distributed into four groups (7 mice/group): the untreated group was not administered any drug; the ABZ group was treated with ABZ orally (100 mg/kg/day); and the Thia15 group and Thia30 group received thiacloprid orally (15 mg/kg/day and 30 mg/kg/day). Treatments of mice started 2 weeks post-infection, and treatments were administered daily for 6 weeks. After 6 weeks of treatment, whole blood via the orbital sinus was collected from mice and the animals were euthanized by CO2. Blood samples were incubated at 37 °C for 1 h and centrifuged at 3500 rpm for 10 min at 4 °C. The serum was harvested and stored at –20 °C for IL-2, IL-4, IL-10 and IgE detection. All metacestode tissues were collected, and the total wet weight of metacestodes per mice was determined. Furthermore, the content of cytokines in microcyst fluid was detected by enzyme-linked immunosorbent assay (ELISA). Several metacestode tissue specimens were processed for transmission electron microscopy (TEM) and histopathological experiments.\nELISA was employed to detect serum IL-2, IL-4, IL-10 and IgE following the manufacturer's instructions. Mouse collagen I and collagen III ELISA kits were used to measure the levels of collagen I and collagen III in the cell culture supernatant after intervention with thiacloprid. All ELISA kits were provided by Elabscience Biotechnology Co., Ltd., Wuhan, China. The OD value at 450 nm was read with a Tecan Infinite M200 PRO enzyme reader (Männedorf, Switzerland), and the concentration was calculated according to the standard curve."}, "[2]": {"tested_on": "collagen I and III, MMP1, MMP3, MMP9, MMP13", "assay": "Collagen and MMP expression in the host-lesion microenvironment (TEM, Sirius red, qPCR, western blot)", "type": "in vivo", "settings": "infected BALB/c mice, 6 weeks oral treatment", "experimental": "The metacestodes were fixed with 4% paraformaldehyde and embedded in paraffin to make sections with a thickness of […]. The sections were dewaxed with water, stained with Picrosirius red for 10 min, rinsed and dehydrated with anhydrous ethanol, and sealed with neutral balsam after the xylene was transparent. Each section of 400× visual field image was randomly collected. The ratio of the area of all images collected to the area of the visual field was measured using the ImageJ analysis system, and the percentage of collagen fibre was calculated.\nThe variations in the microstructure of the protoscoleces or metacestodes were observed under an electron microscope. […] They were washed twice in PBS and then fixed for 3 h with 2.5% glutaraldehyde (pH = 7.2); next, they underwent 2 h post-fixation in 2% OsO4 (SPI-CHEM, West Chester, PA, USA). Subsequently, the samples were washed in double-distilled water and treated with 1% uranyl acetate for 25 min. After the samples were washed again in double-distilled water, dehydration was conducted in ethanol at continuous gradients (30–50–70–80–90–95–100%) over a period of 10 min. For SEM analysis, the dehydrated samples were dipped into hexamethyldisiloxane and then air-dried in a fume hood. The sample was observed under a Hitachi SU8100 scanning electron microscope (Tokyo, Japan) after gold spraying. For TEM analysis, the dehydrated samples passed through a dehydrating agent, and an epoxy resin (SPI-CHEM) permeated and polymerized at 60 °C overnight. A 50-nm ultra-thin section was prepared and then loaded on a 300-mesh copper grid. It was stained with uranyl acetate and lead citrate (SPI-CHEM). The sample was observed under a Hitachi HT7700 transmission electron microscope. To reduce the bias, electron microscopy was observed by professionals in the case of an unknown group.\nTotal RNA was extracted with TRIzol Reagent (Thermo Fisher Scientific, Waltham, MA, USA) according to the manufacturer’s instructions. The purity and concentrations of RNA were quantified using NanoDrop 2000 absorbance measurements at 260/280 nm. Total RNA was converted into cDNA sequences using the FastKing gDNA Dispelling RT SuperMix Kit (TIANGEN Biotech), and RT-qPCR was performed using the RealUniversal Color PreMix Kit (TIANGEN Biotech) on an ABI QuantStudio 5 system (Applied Biosystems, Waltham, MA, USA). The specific primers are shown in Additional file 4: Table S1. The PCR cycling conditions were as follows: pre-denaturation at 95 °C for 15 min followed by 40 cycles at 95 °C for 10 s and 60 °C for 34 s. The relative mRNA expression levels were quantified using the 2^−ΔΔCT method. RPS18 served as an internal control.\nA total protein extraction kit (Solarbio) was used to extract cell or tissue total protein. The protein concentration was determined by the protein quantitative assay kit (Thermo Fisher Scientific). Then, electrophoresis was performed with 20–50 μg of protein sample. The protein was separated by sodium dodecyl sulfate polyacrylamide gel electrophoresis (SDS-PAGE) and transferred to a 0.22 μm PVDF membrane (Merck Millipore, Darmstadt, Germany). The PVDF membrane was blocked with 5% of nonfat powdered milk in Tris-buffered saline Tween 20 (TBST) for 1 h at room temperature. The membrane incubation with primary antibodies was performed at 4 °C overnight. The antibody information is listed in Additional file 5: Table S2. The membrane was washed with TBST and incubated with HRP-labeled secondary antibodies (1:5000, Abclonal, Wuhan, China) for 1 h at room temperature. Blotted membranes were visualized using enhanced chemiluminescence reagents (Thermo Fisher Scientific). Protein expression was depicted as the intensity of each protein relative to that of β-actin using ImageJ software."}, "[3]": {"tested_on": "E. multilocularis metacestodes", "assay": "In vivo treatment of mice experimentally infected with E. multilocularis metacestodes", "design": "species or system Echinococcus multilocularis", "experimental": "as §1\nTissues from experimental animals were washed in PBS and fixed in 4% paraformaldehyde at room temperature for […]. On the next day, they were dehydrated, embedded, and sliced into 5-μm sections. After dewaxing and dehydrating, sections were stained with hematoxylin for 2–5 min, and re-stained with eosin for 15 s. They were sealed with neutral gum and observed under a BX51 microscope (Olympus, Tokyo, Japan).\nA Periodic Acid Schiff Stain Kit (Solarbio, Beijing, China) was used to show the PAS-positive laminated layer characteristic of E. multilocularis metacestodes. The section (5 μm) was dewaxed in xylene and rehydrated in 100%, 95%, 80%, and 75% alcohol baths. Staining was then carried out according to the kit instructions."}, "[4]": {"tested_on": "Reuber rat hepatoma (RH) cells", "assay": "alamarBlue cytotoxicity assay, RH cells", "type": "cell-based", "settings": "120 h, 5 days", "experimental": "(§2) An alamarBlue assay was used to assess the toxicity of thiacloprid to confluent and pre-confluent mammalian cells in vitro [29]. Human foreskin fibroblasts (HFF, Procell) and rat hepatoma cells (RH, Procell) were seeded into 96-well cell culture plates in DMEM supplemented with 10% FBS and 1% penicillin–streptomycin at 37 °C and 5% CO2. For detecting the growth inhibitory effects of confluent cells, HFF and RH cells were seeded at 10,000 cells per well and 50,000 cells per well, respectively. After overnight culture, thiacloprid or PZQ was added and diluted in serial concentrations (0, 0.6, 1.2, 2.5, 5, 10, 20, 40, 80 and 160 μM). For detecting growth inhibitory effects on proliferating cells, cells were seeded at 1000 (HFF) and 5000 (RH) cells per well. Thiacloprid was added after 5 h of cell attachment. To measure the viability of the cells after treatment for 5 days, the alamarBlue assay was employed and viability calculated as described previously."}, "[5]": {"tested_on": "E. multilocularis germinal cells", "assay": "CellTiter-Glo viability assay on germinal cells", "type": "cell-based, Echinococcus multilocularis", "settings": "Echinococcus multilocularis, 120 h; 5 days; CellTiter-Glo; read-out: IC50 against germinal cells", "experimental": "To evaluate the activity of thiacloprid against parasitic stem cells, germinal cells from in vitro metacestode vesicles were investigated as described by Spiliotis et al.. Briefly, 20 units of cells were distributed into a black 384-well plate. Different concentrations of thiacloprid or PZQ (0, 0.06, 1.2, 2.5, 5, 10, 20, 40, 80 and 160 μM) were added to the cells. After culture at 37 °C for 5 days under a humid nitrogen atmosphere, 25 μl CellTiter-Glo containing 1% Triton X-100 was added. The plates were incubated at room temperature in the dark for 15 min. After the total destruction of the cellular aggregates, luminescence was measured using an Infinite M200 PRO reader (Tecan), and 0 μM values were set to 100% viability. The IC50 values were calculated using an online IC50 calculator after logit-log transformation. Four independent replicates were conducted."}, "[6]": {"tested_on": "Human foreskin fibroblasts (HFF)", "assay": "alamarBlue cytotoxicity assay, HFF", "type": "cell-based", "settings": "Fibroblast, 120 h, 5 days", "experimental": "as §2"}, "[7]": {"tested_on": "E. multilocularis metacestodes", "assay": "PGI assay (phosphoglucose isomerase release) on metacestode vesicles", "type": "cell-based, Echinococcus multilocularis", "settings": "Echinococcus multilocularis, 120 h, read-out: EC50 against E. multilocularis metacestode by the PGI assay", "experimental": "The efficacy of thiacloprid against the E. multilocularis metacestode was evaluated by applying a phosphoglucose isomerase (PGI) assay that measures the release of the enzyme phosphoglucose isomerase upon physical impairment of metacestodes. In brief, medium without phenol red (DMEM, 1% penicillin/streptomycin sulfate, 2 mM L-glutamine) was added to the same volume of vesicles and distributed to 48-well (12–15 per vesicles) plates. Subsequently, metacestodes were incubated for 5 days with different concentrations (0, 0.06, 1.2, 2.5, 5, 10, 20, 40, 80 and 160 μM) of thiacloprid or praziquantel (PZQ), after which PGI release was quantified exactly as described in Stadelmann et al.. Triton X-100 (0.1% in PBS) was applied as a positive control (maximal release of vesicle fluid). Each condition was tested in biological triplicate. After 5 days of incubation, 200 μl medium supernatant was collected from each well and stored at − 20 °C until further measurements were performed. PGI measurements were performed as described earlier, except that an Infinite M200 PRO reader (Tecan, Männedorf, Switzerland) was used to measure the increase in absorbance at 340 nm. PGI activity was calculated using the EC50 calculator (https://www.aatbio.com/tools/ec50-calculator) from the linear regression of the enzyme reaction over time and presented as a percentage relative to the values obtained by treatment of vesicles with 0.1% Triton X-100."}, "[8]": {"tested_on": "acetylcholinesterase", "assay": "Acetylcholinesterase activity (Ellman) in extracts of protoscoleces, metacestodes and germinal cells", "type": "biochemical, Echinococcus multilocularis", "settings": "extract; thiacloprid 5 μM, 37 °C 10 min; BW284c51 positive control", "experimental": "The effects of thiacloprid on the acetylcholinesterase activity of E. multilocularis protoscoleces, metacestodes and germinal cells were determined according to a previously described method. The protoscoleces, metacestode and germinal cells were washed twice with PBS and homogenized with an electric homogenizer in precooled PBS. Centrifugation of the homogenates was performed at 100,000×g for 30 min. The protein concentration of the supernatant was determined by the modified Lowry method according to the instructions, and the concentration was adjusted to 2 mg/ml. Thiacloprid (5 μM) was added to the extract and incubated at 37 °C for 10 min. The extract was supplemented with 0.1% DMSO as control. Subsequently, acetylcholinesterase activity was assessed according to Ellman’s procedure using a microplate with 260 µl of 0.1 M PBS buffer pH 8.0, 10 µl of 10 mM dithiobisnitrobenzoic acid solution, 2.5 µl of 75 mM substrate (acetylthiocholine iodide) and 25 µl of the sample treated with thiacloprid. The OD increment was measured at 412 nm using an Infinite M200 PRO reader (Tecan). Each experiment was conducted three times. BW284c51 (CAS number: 402-40-4, Sigma) was used as a positive control."}}, "note": "Read-outs that look alike come from different tables or passages of the source."}
{"smiles": "CCCSc1ccc2nc(NC(=O)OC)[nH]c2c1", "note": "[ABZ, albendazole]", "values": [{"measurement": "Expression of IL-2, IL-4 and IL-10 in serum compared with the untreated group", "setting": "[1]", "value": "consistent variations"}, {"measurement": "Expression of IgE in serum compared with the untreated group", "setting": "[1]", "value": "consistent variations"}, {"measurement": "Collagen fiber deposition in the host-lesion microenvironment (TEM)", "setting": "[2]", "value": "can promote"}, {"measurement": "mRNA expression of MMP1, MMP3, MMP9 and MMP13 in the microenvironment", "setting": "[2]; qPCR", "value": "significantly inhibited"}, {"measurement": "mRNA and protein expression levels of collagen I and III in the host-lesion microenvironment", "setting": "[2]; qPCR, western blot", "value": "increased"}, {"measurement": "Protein expression levels of MMP1, MMP3, MMP9 and MMP13", "setting": "[2]; western blot", "value": "decreased"}, {"measurement": "HE staining of metacestodes from treated mice", "setting": "[3]; 6 weeks oral treatment, thiacloprid 15 or 30 mg/kg/day, ABZ 100 mg/kg/day", "value": "germinal cells could still be observed"}, {"measurement": "Wet weight of the metacestodes", "setting": "[3]; infected BALB/c mice, ABZ 100 mg/kg/day orally, 6 weeks, untreated 6.49 ± 1.18 g", "value": "1.85 ± 0.94", "unit": "g"}]}
{"smiles": "O=C(C1CCCCC1)N1CC(=O)N2CCc3ccccc3C2C1", "note": "(stereo not drawn) [PZQ, praziquantel]", "values": [{"measurement": "IC50", "setting": "[4]; confluent cells, read-out: IC50 on confluent RH cells", "value": "25.3 ± 6.32", "unit": "µM"}, {"measurement": "IC50", "setting": "[4]; pre-confluent cells, read-out: IC50 on pre-confluent RH cells", "value": "11.6 ± 3.52", "unit": "µM"}, {"measurement": "IC50", "setting": "[5]", "value": "2.59 ± 0.33", "unit": "µM"}, {"measurement": "IC50", "setting": "[6]; confluent cells, read-out: IC50 on confluent HFF", "value": "53.2 ± 11.1", "unit": "µM"}, {"measurement": "IC50", "setting": "[6]; pre-confluent cells, read-out: IC50 on pre-confluent HFF", "value": "6.71 ± 1.88", "unit": "µM"}, {"measurement": "EC50", "setting": "[7]", "value": "7.41 ± 2.09", "unit": "µM"}]}
{"smiles": "C=CC[N+](C)(C)c1ccc(CCC(=O)CCc2ccc([N+](C)(C)CC=C)cc2)cc1.[Br-].[Br-]", "note": "[BW284c51]", "values": [{"measurement": "Acetylcholinesterase activity in protoscoleces, metacestode vesicles and germinal cells", "setting": "[8]", "value": "inhibited"}]}
